Here are results for 4 compounds from US20060204980A1, “Colorectal cancer therapies” (priority 2004, published 2006).

Type in all cases: cell-based
The test system of assay [1] is p53^+/+ HCT116 colorectal carcinoma cells. As to the kind of experiment: Western blotting of p53 pathway proteins in treated p53+/+ HCT116 cells. Particulars: for p53 expression (Western blot) / survivin expression (Western blot) / p21^Waf1/Cip1 expression (Western blot): p53+/+ HCT116; for p53 expression (Western blot) / p21^Waf1/Cip1 expression (Western blot): 6-24 hours. As for the experimental part:
(§1) Cells were collected and centrifuged at 3,000 rpm for 5 minutes at 4° C., and washed in PBS (pH 7.2). The cell pellet was solubilized in lysis buffer (20 mM Tris, pH 7.2, 0.5% deoxycholate, 1% Triton X-100, 0.1% SDS, 150 mM NaCl, 1 mM EDTA) containing proteases inhibitors (Complete, Roche Applied Science) for 30 min at 4° C. The lysate was cleared by centrifugation for 15 minutes, and protein concentration was evaluated using a Bio-Rad protein assay system (Bio-Rad Laboratories, Hercules, Calif.). Samples (30 μg) were separated by SDS-polyacrylamide gel, transferred to nylon membranes (Millipore), and incubated with primary antibodies to p53 (Oncogene Research Products, FL-393, Santa Cruz Biotechnology, Inc., Santa Cruz, Calif.), p21^Waf1/Cip1 (Oncogene Research Products), XIAP (BD Transduction Laboratories), survivin (NOVUS Biologicals, Littleton, Colo.), MDM2 (Santa Cruz Biotechnology, Inc.), p14^ARF (NOVUS Biologicals), caspase-3 (Cell Signaling Technology), cleaved caspase-3 (Cell Signaling Technology), β-catenin (BD Transduction Laboratories), cyclin B1 (GNS1, Santa Cruz Biotechnology, Inc.), GSK3β (Santa Cruz Biotechnology, Inc.), or β-sactin (Sigma) with detection of reactive bands by chemiluminescence (Amersham). Cells were analyzed for hypodiploid DNA content by propidium iodide staining and flow cytometry as described in O'Connor et al., Cancer Cell, 2:43-54 (2002). Chemicals whose source is not explicitly listed were or can be obtained from Sigma.
To explore the link between GSK3β inhibition and p53 modulation, in vivo, HCT116 cells were treated with Li, TDZD or SB216763, and analyzed cells by Western blotting. p53^+/+ or p53^−/− HCT116 cells were incubated with the following GSK3β inhibitors, LiCl (Sigma, 30 mM), thiadiazolidinone-8 (TDZD) (Calbiochem, 0-20 μM), or SB216763 (Sigma, 20 μM), cells were harvested after 6-24 hours, and samples were analyzed by Western blotting as described in Example 2. […]

For the next assay, the system named is p53^+/+ HCT116 cells. As to the kind of experiment: Multiparametric flow cytometry of caspase-3/7 (DEVDase) activity and cell viability, p53+/+ HCT116. The following applies: TDZD 20 μM, 48 hours; for caspase-dependent apoptosis (DEVDase activity and plasma membrane integrity): p53+/+ HCT116, LiCl 30 mM. The method, then:
(§2) The functional consequences of GSK3β inhibition were explored. Source and maintenance of p53^+/+ and p53^−/− HCT116 colorectal carcinoma cells were as described in Example 2. […] Alternatively, cells were incubated with GSK3β inhibitors LiCl (30 mM) or TDZD (20 μM), harvested after 48 hours and analyzed for cell viability (propidium iodide, red channel) and active caspase-3/7 activity (green channel, […]®, from Chemicon International Inc., Temecula, Calif.), by multiparametric flow cytometry as reported previously in Kim et al., Lancet, 362:205-209 (2003).
(§3) To clarify the role of GSK3β inhibition in p53-dependent apoptosis, HCT116 cells were treated with TDZD or LiCl and monitored changes in cell death. […] See the two center column panels of FIG. 6C. […] See right hand column panels of FIG. 6C.

Another assay deals with p53^−/− HCT116 cells. Kind of assay: Multiparametric flow cytometry of caspase-3/7 (DEVDase) activity and cell viability, p53-/- HCT116. Particulars: TDZD 20 μM, 48 hours; for apoptosis induction (DEVDase activity and plasma membrane integrity): p53-/- HCT116, LiCl 30 mM. As for the experimental part: as §2, §3
Another assay has as its target GSK3β (Homo sapiens, UniProt P49841). As to the kind of experiment: Immunoprecipitation and GSK3β kinase assay using glycogen synthase-derived peptide substrate, from treated HCT116 cells. More on the design: harvested after 6 or 12 hours, and immunoprecipitated with an antibody to GSK3β; endogenous in cells; host or cells: HCT116 (p53+/+) colorectal carcinoma cells. The following applies: p53+/+ HCT116 cells; Purvalanol A 10 μM, LiCl 30 mM, TDZD 20 μM; 6 or 12 hours. As for the experimental part:
Immune complexes were mixed with a synthetic peptide containing a GSK3β phosphorylation site derived from the sequence of glycogen synthase (Upstate Biotechnology) in the presence of 10 μCi of γ-^32P-ATP (Amersham Corp., Piscataway, N.J.), after 30 min incubation at 30° C., the reaction mixtures were centrifuged briefly, and 15 μl of the supernatant was spotted onto P81 phosphocellulose paper (Whatman Inc., Clifton, N.J.). The membrane was washed three times with 175 mM phosphoric acid, rinsed once in acetone, and dried. Changes in peptide phosphorylation under the various conditions tested were determined by scintillation counting. Data were analyzed using the unpaired t test on a Graphpad Prism software package for Windows (Graphpad Inc., San Diego, Calif.). A P value of 0.05 was considered as statistically significant.

Assay [2] has as its system p53^−/− HCT116 colorectal carcinoma cells. As to the kind of experiment: Western blotting of p53 pathway proteins in treated p53-/- HCT116 cells. The method, then:
as §1
To explore the link between GSK3β inhibition and p53 modulation, in vivo, HCT116 cells were treated with Li, TDZD or SB216763, and analyzed cells by Western blotting. p53^+/+ or p53^−/− HCT116 cells were incubated with the following GSK3β inhibitors, LiCl (Sigma, 30 mM), thiadiazolidinone-8 (TDZD) (Calbiochem, 0-20 μM), or SB216763 (Sigma, 20 μM), cells were harvested after 6-24 hours, and samples were analyzed by Western blotting as described in Example 2.

Chain of GSK3β (P49841 whole entry): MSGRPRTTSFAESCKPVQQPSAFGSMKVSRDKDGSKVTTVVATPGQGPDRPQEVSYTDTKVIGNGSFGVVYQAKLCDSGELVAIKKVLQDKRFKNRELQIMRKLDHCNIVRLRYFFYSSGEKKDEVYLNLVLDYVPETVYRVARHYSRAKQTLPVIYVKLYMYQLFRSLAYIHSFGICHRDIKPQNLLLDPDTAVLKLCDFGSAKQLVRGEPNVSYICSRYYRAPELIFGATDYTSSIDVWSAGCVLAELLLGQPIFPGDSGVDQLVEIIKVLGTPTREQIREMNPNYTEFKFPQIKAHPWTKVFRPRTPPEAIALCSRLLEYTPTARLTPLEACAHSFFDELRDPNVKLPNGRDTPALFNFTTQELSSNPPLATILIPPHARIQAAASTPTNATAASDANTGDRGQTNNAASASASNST

With `O=C1Cc2c([nH]c3ccc([N+](=O)[O-])cc23)-c2ccccc2N1` [alsterpaullone], the “p53 expression (Western blot)” value in assay [1] is on record as “elevation of p53 levels”.
Turning to `[Cl-].[Li+]` [LiCl, lithium chloride], in assay [1], the “survivin expression (Western blot)” value is “time-dependent downregulation of survivin” and the “p53 expression (Western blot)” value is given as “elevation of p53 levels only at 24 hours after treatment”. The “caspase-dependent apoptosis (DEVDase activity and plasma membrane integrity)” value in the assay on p53^+/+ HCT116 cells is reported as “reproduced caspase-dependent apoptosis”. Besides, the “apoptosis induction (DEVDase activity and plasma membrane integrity)” value in the assay on p53^−/− HCT116 cells was “considerably less effective at inducing apoptosis”. On GSK3β, the “GSK3β kinase activity (peptide phosphorylation)” value is “suppressed GSK3β activity”.
On to `Cn1cc(C2=C(c3ccc(Cl)cc3Cl)C(=O)NC2=O)c2ccccc21` [SB216763], for which, in assay [1], the “p21^Waf1/Cip1 expression (Western blot)” value is on record as “prominent upregulation” and the “p53 expression (Western blot)” value is “strong induction of p53”.
For `Cn1sc(=O)n(Cc2ccccc2)c1=O` [TDZD, 4-Benzyl-2-methyl-1,2,4-thiadiazolidine-3,5-dione], in assay [1] (HCT116 cells), the “MDM2 expression (Western blot)” value is “reduced expression”. Also, in assay [1] (HCT116 cells, relative to vehicle), the “p14^ARF expression (Western blot)” value is listed as “upregulation of p14^ARF”. Besides, in assay [1], the “survivin expression (Western blot)” value is reported as “time-dependent downregulation of survivin”, the “p21^Waf1/Cip1 expression (Western blot)” value was “prominent upregulation” and the “p53 expression (Western blot)” value is “strong induction of p53”. Also, the “survivin expression (Western blot)” value in assay [2] is given as “no changes in survivin expression”. Besides, the “caspase-dependent apoptosis (DEVDase activity and plasma membrane integrity)” value in the assay with p53^+/+ HCT116 cells is given as “reproduced caspase-dependent apoptosis”. Moreover, the “increase in fraction of apoptotic cells” value in the assay with p53^+/+ HCT116 cells (p53+/+ cultures) is roughly 4.5 fold. For the same compound, the “apoptosis induction (DEVDase activity and plasma membrane integrity)” value in the assay on p53^−/− HCT116 cells is recorded as “considerably less effective at inducing apoptosis”. The “increase in fraction of apoptotic cells” value with p53^−/− HCT116 cells (p53-/- cells) is on record as 1.7 fold. Further, on GSK3β, the “GSK3β kinase activity (peptide phosphorylation)” value is recorded as “suppressed GSK3β activity”.
